Experimental data reported in patent US6632979B2, “Rodent HER2 tumor model” (Genentech, Inc., priority 2000, dated 2003).
“Also recorded” adds a separate entry of the source.

Legend:
[1] = test system: tumors from the HER2 transgenic cell line HER-3081-3-10; assay: Growth of tumors from cell line HER-3081-3-10 in mice; format: in vivo, mouse; conditions: 4D5, 7C2 30 mg/kg intraperitoneally for 4 weeks; taxol 15.6 mg/kg subcutaneously daily for 5 days; tumors 100 mm^3, FIG. 16
Method: The efficacy of taxol and anti-HER2 monclonal antibodies 7C2 and 4D5 in preventing tumor growth was assessed (FIG. 16). At day 0, 6-8 week old FVP mice were innoculated under the skin with 2 million tumor cells from cell line HER-3081-3-10. When the tumors reached 100 mm^3 the mice were separated into 5 groups with 9 animals per group. Antibodies 4D5 and 7C2 were given intraperitoneally at 30 mg/kg for 4 weeks. Taxol was given subcutaneously daily for 5 days at 15.6 mg/kg. Tumors were measured during the study at regular intervals.

[2] = test system: MMTV-HER2-transgenic tumors transplanted into the mammary fat pad of FVB mice; assay: Transplanted MMTV-HER2-transgenic tumor model in FVB mice; format: in vivo, mouse
From the text: Two mm3 pieces of MMTV-HER2-transgenic tumors were transplanted into the mammary fat pad of FVB mice.
All animals received five doses.
The tumor was surgically resected under aseptic conditions and minced into small pieces, 2 mm^3, which were then transplanted into the mammary fat pad of wild-type FVB female mice.

[3] = test system: HER-5, HER-3081-3-4, HER-3081-3-10 and HER-3081-3-19 cells; assay: Mitogen responsiveness of HER2 transgenic cell lines, crystal violet; format: cell-based, mouse; conditions: heregulin 0.005-5 nM or EGF 0.05-50 ng/ml, 4 days, FIG. 11
Method: Briefly, cells were detached from a T75 flask with Dissociation Solution (Sigma) and plated in fibronectin coated 96 well plates. Approximately 10,000 cells were plated per well in 0.1 ml of fully supplemented media. […] After 4 days plates were washed twice with PBS (pH 7.5), stained with crystal violet (0.5% in methanol), dried, solubilized and the optical density measured at a wavelength of 540 nm on a plate reader, essentially as described in Sugarman et al. Science 230:943-945 (1985).

CC(=O)O[C@H]1C(=O)[C@@]2(C)[C@H]([C@H](OC(=O)c3ccccc3)[C@]3(O)C[C@H](OC(=O)[C@H](O)[C@@H](NC(=O)c4ccccc4)c4ccccc4)C(C)=C1C3(C)C)[C@]1(OC(C)=O)CO[C@@H]1C[C@@H]2O [taxol, paclitaxel]
reduction of tumor growth [1]: more effective than either of the antibodies alone

RITUXAN®: an unrelated antibody, used as negative control
efficacy on tumor size ([2]; FIG. 7, unconjugated control antibody): no efficacy
effect on tumor growth ([2]; FIG. 8, control antibody and control conjugate): Neither unconjugated RITUXAN® (control MAb E25) nor RITUXAN®-DM1 had any obvious effect on tumor growth

heregulin
proliferation in response to mitogen [3]: only the HER-5 cell line proliferated; also recorded: mitogens only for cell line HER-5
